Data published in the supplement of paper PMC11061612.

Experiments:
[1] = system: HT-1197 (Bladder Carcinoma); test: Bliss excess, mean over the matrix (fraction); higher = more synergy
In short: (§1)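 Cell lines grown in DMEM/F12 or RPMI with 10% FBS were plated in 1536-well plates and held 24 hours at 37°C, 5% CO2 before 72 hours of exposure to two-drug dose matrices, with DMSO typically at 0.2%. CellTiter-Glo 2.0 luminescence gave viability, which was converted to inhibition. Vehicle wells were set to 0 and blank wells to 1. Combination Emax is the second-highest inhibition in the matrix, and Bliss excess is the observed combination effect minus the expected EA + EB − EA·EB, where EA and EB are the single-agent effects.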

[2] = system: JJN-3 (Plasma Cell Myeloma); test: as above
In short: as §1

[3] = system: MDA-MB-175-VII (Breast Carcinoma); test: as above
In short: as §1

[4] = system: NCI-H1648 (Lung Adenocarcinoma); test: as above
In short: as §1

[5] = system: NCI-H1975 (Lung Adenocarcinoma); test: as above
In short: as §1

[6] = system: RS4-11 (B-Lymphoblastic Leukemia); test: as above
In short: as §1

[7] = system: SUP-HD1 (Hodgkin's Lymphoma); test: as above
In short: as §1

[8] = system: TOV-21G (Ovarian Carcinoma); test: as above
In short: as §1

[9] = system: ATN-1 (T-Lymphoblastic Leukemia); test: combination Emax (second highest fraction inhibited in the dose matrix, 72 h); higher = more inhibition; extreme values may be limits of the assay
In short: as §1

[10] = system: C2BBe1 (Colorectal Carcinoma); test: as above
In short: as §1

GCIY (Gastric Carcinoma) = test: as above
In short: as §1

[11] = system: HT-1197 (Bladder Carcinoma); test: as above
In short: as §1

[12] = system: L-363 (Plasma Cell Myeloma); test: as above
In short: as §1

[13] = system: NCI-H1048 (Small Cell Lung Carcinoma); test: as above
In short: as §1

[14] = system: NCI-H2009 (Lung Adenocarcinoma); test: as above
In short: as §1

[15] = system: RS4-11 (B-Lymphoblastic Leukemia); test: as above
In short: as §1

[16] = system: SBC-5 (Small Cell Lung Carcinoma); test: as above
In short: as §1

[17] = system: SCC90 (Head and Neck Carcinoma); test: as above
In short: as §1

[18] = system: SW1463 (Colorectal Carcinoma); test: as above
In short: as §1

[19] = system: TK (B-Cell Non-Hodgkin's Lymphoma); test: as above
In short: as §1
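For Bliss excess, mean over the matrix in this document: after 72 h of two-drug dosing.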

Row | Structure (SMILES) | Bliss excess [1] | Bliss excess [2] | Bliss excess [3] | Bliss excess [4] | Bliss excess [5] | Bliss excess [6] | Bliss excess [7] | Bliss excess [8] | combination Emax [9] | combination Emax [10] | combination Emax (GCIY (Gastric Carcinoma)) | combination Emax [11] | combination Emax [12] | combination Emax [13] | combination Emax [14] | combination Emax [15] | combination Emax [16] | combination Emax [17] | combination Emax [18] | combination Emax [19]
1 | Cc1c2c(nn1C)CSCc1cc(n(C)n1)CSc1cc(c3ccccc3c1)OCCCc1c(C(=O)O)n(C)c3c-2c(Cl)ccc13 [AZD5991] + C[C@@H](Nc1cc(F)cc(F)c1)c1cc(C(=O)N(C)C)cc2c(=O)cc(N3CCOCC3)oc12 [AZD8186] (first compound max 1 µM, 7x7, partner max 3 µM) | -0.0055 | -0.0448 | -0.0006 | -0.0508 | -0.0203 | -0.0092 | -0.0414 | -0.0139 | 0.945 | 0.335 | 0.565 | 0.252 | 1 | 0.965 | 0.165 | 0.591 | 0.845 | 0.903 | 0.188 | 0.112
2 | Cc1c2c(nn1C)CSCc1cc(n(C)n1)CSc1cc(c3ccccc3c1)OCCCc1c(C(=O)O)n(C)c3c-2c(Cl)ccc13 [AZD5991] + Cn1cnc2c(F)c(Nc3ccc(Br)cc3Cl)c(C(=O)NOCCO)cc21 [Selumetinib] (first compound max 1 µM, 7x7, partner max 3 µM) | -0.0375 | 0.0114 | -0.0217 | 0.0396 | 0.0208 | 0.0021 | -0.011 | 0.0121 | 0.888 | 0.425 | 0.465 | 0.321 | 1 | 0.971 | 0.526 | 0.497 | 0.415 | 0.99 | 0.547 | 0.114
3 | C[C@@H]1COCCN1c1cc(C2([S@](C)(=N)=O)CC2)nc(-c2ccnc3[nH]ccc23)n1 [AZD6738] + O=C(c1cc(Cc2n[nH]c(=O)c3ccccc23)ccc1F)N1CCN(C(=O)C2CC2)CC1 [Olaparib] (first compound max 10 µM, 7x7, partner max 10 µM) | -0.0042 | -0.0548 | 0.0522 | 0.0086 | -0.0088 | -0.0365 | -0.054 | 0.0035 | 1 | 0.331 | 0.811 | 0.393 | 0.854 | 0.786 | 0.478 | 0.979 | 0.789 | 0.48 | 0.951 | 0.878
4 | NC1(C(=O)N[C@@H](CCO)c2ccc(Cl)cc2)CCN(c2ncnc3[nH]ccc23)CC1 [Capivasertib] + CC(=O)c1c(C)c2cnc(Nc3ccc(N4CCNCC4)cn3)nc2n(C2CCCC2)c1=O [Palbociclib] (first compound max 10 µM, 7x7, partner max 10 µM) | 0.0024 | -0.0257 | 0.0127 | -0.0039 | -0.0456 | -0.0425 | -0.0643 | -0.0466 | 0.686 | 0.314 | 0.631 | 0.551 | 0.509 | 0.503 | 0.242 | 0.605 | 0.353 | 0.965 | 0.502 | 0.0563
5 | NC1(C(=O)N[C@@H](CCO)c2ccc(Cl)cc2)CCN(c2ncnc3[nH]ccc23)CC1 [Capivasertib] + CC(C)n1c(=O)n(C)c2cnc3cc(F)c(-c4ccc(OCCCN5CCCCC5)nc4)cc3c21 [AZD1390] (first compound max 10 µM, 7x7, partner max 0.3 µM) | -0.0388 | -0.0105 | -0.0189 | -0.0077 | -0.0165 | 0.0078 | -0.136 | -0.0076 | 0.778 | 0.32 | 0.397 | 0.391 | 0.465 | 0.439 | 0.372 | 0.32 | 0.281 | 0.825 | 0.237 | 0.162
6 | NC1(C(=O)N[C@@H](CCO)c2ccc(Cl)cc2)CCN(c2ncnc3[nH]ccc23)CC1 [Capivasertib] + CCN(CCO)CCCOc1ccc2c(Nc3cc(CC(=O)Nc4cccc(F)c4)[nH]n3)ncnc2c1 [AZD2811] (first compound max 10 µM, 7x7, partner max 1 µM) | 0.016 | -0.0148 | -0.0202 | -0.0419 | -0.0558 | -0.0504 | -0.0307 | 0.0123 | 0.86 | 0.301 | 0.504 | 0.439 | 0.549 | 0.784 | 0.386 | 0.96 | 0.383 | 0.867 | 0.319 | 0.231
7 | NC1(C(=O)N[C@@H](CCO)c2ccc(Cl)cc2)CCN(c2ncnc3[nH]ccc23)CC1 [Capivasertib] + COc1nnc2ccc(N3CCC(c4ccc(OCCN5CCN(C)C(=O)[C@H]5C)cc4)CC3)nn12 [AZD5153] (first compound max 10 µM, 7x7, partner max 1 µM) | 0.0255 | -0.0242 | 0.0129 | -0.0694 | -0.0761 | 0.089 | -0.047 | 0.0011 | 0.654 | 0.405 | 0.735 | 0.759 | 0.879 | 0.71 | 0.498 | 0.867 | 0.563 | 0.986 | 0.521 | 0.387
8 | NC1(C(=O)N[C@@H](CCO)c2ccc(Cl)cc2)CCN(c2ncnc3[nH]ccc23)CC1 [Capivasertib] + C[C@@H]1COCCN1C2=NC(=NC(=C2)C3(CC3)[S@](=N)(=O)C)C4=C5C=CNC5=NC=C4 [AZD6738] (first compound max 10 µM, 7x7, partner max 10 µM) | -0.0491 | -0.0181 | -0.0407 | -0.0878 | -0.0576 | -0.0276 | -0.0508 | -0.0241 | 0.965 | 0.445 | 0.751 | 0.491 | 0.824 | 0.667 | 0.453 | 0.967 | 0.7 | 0.804 | 0.42 | 0.871
9 | NC1(C(=O)N[C@@H](CCO)c2ccc(Cl)cc2)CCN(c2ncnc3[nH]ccc23)CC1 [Capivasertib] + Cn1cnc2c(F)c(Nc3ccc(Br)cc3Cl)c(C(=O)NOCCO)cc21 [Selumetinib] (first compound max 10 µM, 7x7, partner max 10 µM) | 0.0646 | 0.0565 | 0.0989 | 0.0807 | 0.0584 | -0.016 | -0.0141 | 0.0122 | 0.77 | 0.569 | 0.512 | 0.531 | 0.605 | 0.7 | 0.584 | 0.468 | 0.627 | 0.992 | 0.65 | 0.0522
10 | COc1cccc2c1C(=O)c1c(O)c3c(c(O)c1C2=O)C[C@@](O)(C(=O)CO)C[C@@H]3O[C@H]1C[C@H](N)[C@H](O)[C@H](C)O1 [Doxorubicin] + Cc1cc2ncnn2cc1Nc1ncc2c(n1)n(C1CCOCC1)c(=O)n2C [AZD7648] (first compound max 1 µM, 7x7, partner max 10 µM) | 0.0022 | 0.0238 | -0.0228 | 0.0456 | 0.0542 | 0.171 | 0.0727 | 0.0091 | 0.996 | 0.242 | 0.663 | 0.735 | 0.925 | 0.933 | 0.546 | 0.977 | 0.77 | 0.603 | 0.196 | 0.73
11 | CS(=O)(=O)CCNCc1ccc(-c2ccc3ncnc(Nc4ccc(OCc5cccc(F)c5)c(Cl)c4)c3c2)o1 [Lapatinib] + C[C@@H](Oc1cc(-c2cnn(C3CCNCC3)c2)cnc1N)c1c(Cl)ccc(F)c1Cl [Crizotinib] (first compound max 10 µM, 7x7, partner max 10 µM) | -0.0307 | -0.0287 | -0.0129 | 0.0036 | -0.0428 | -0.0183 | -0.0579 | -0.0289 | 0.988 | 0.745 | 0.882 | 0.536 | 0.932 | 0.525 | 0.732 | 0.883 | 0.832 | 0.946 | 0.802 | 0.701
12 | CC(=O)c1c(C)c2cnc(Nc3ccc(N4CCNCC4)cn3)nc2n(C2CCCC2)c1=O [Palbociclib] + CC1(C)CCC(CN2CCN(c3ccc(C(=O)NS(=O)(=O)c4ccc(NCC5CCOCC5)c([N+](=O)[O-])c4)c(Oc4cnc5[nH]ccc5c4)c3)CC2)=C(c2ccc(Cl)cc2)C1 [Venetoclax] (first compound max 10 µM, 7x7, partner max 1 µM) | -0.042 | -0.0357 | -0.0174 | -0.0254 | -0.0254 | 0.0385 | -0.0641 | -0.025 | 0.608 | 0.111 | 0.17 | 0.16 | 0.208 | 0.287 | 0.0582 | 1 | 0.23 | 0.155 | 0.603 | 0.975
13 | CC(=O)c1c(C)c2cnc(Nc3ccc(N4CCNCC4)cn3)nc2n(C2CCCC2)c1=O [Palbociclib] + Cc1c2c(nn1C)CSCc1cc(n(C)n1)CSc1cc(c3ccccc3c1)OCCCc1c(C(=O)O)n(C)c3c-2c(Cl)ccc13 [AZD5991] (first compound max 10 µM, 7x7, partner max 1 µM) | -0.0289 | -0.0434 | 0.0232 | -0.0084 | -0.0357 | -0.0519 | -0.0704 | -0.0439 | 0.954 | 0.229 | 0.2 | 0.247 | 0.994 | 0.65 | 0.179 | 0.841 | 0.443 | 0.965 | 0.58 | 0.266
